This is an account of results in patent US20250382306A1, “HETEROCYCLIC COMPOUND AS TAAR1 LIGAND AGONIST” (SHANDONG LUYE PHARMACEUTICAL CO., LTD., priority 2022, published 2025).

For one data set, the target named is T1, TAAR1 (Homo sapiens, UniProt Q96RJ0).
T1 construct: expressed in transfected cells; host or cells: CHO-K1 (cAMP Hunter TAAR1 Gs cell line)
T1 sequence (Q96RJ0 1-339): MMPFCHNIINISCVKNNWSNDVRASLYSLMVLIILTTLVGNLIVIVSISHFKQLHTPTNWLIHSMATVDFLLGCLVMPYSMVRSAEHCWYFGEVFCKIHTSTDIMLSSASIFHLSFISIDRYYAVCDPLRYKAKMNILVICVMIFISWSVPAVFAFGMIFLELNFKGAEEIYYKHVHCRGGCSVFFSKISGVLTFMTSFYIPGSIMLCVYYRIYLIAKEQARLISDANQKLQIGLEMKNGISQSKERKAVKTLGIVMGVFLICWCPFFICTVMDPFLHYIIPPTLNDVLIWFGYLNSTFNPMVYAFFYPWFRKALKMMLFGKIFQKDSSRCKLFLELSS
In words: In vitro TAAR1 functional activity (cAMP Hunter CHO-K1 TAAR1 Gs cell line, HitHunter cAMP assay). Type of data set: cell-based. Conditions: cAMP Hunter CHO-K1 TAAR1 Gs cell line, chemiluminescence cAMP readout; read-out: EC50. Here is the method:
Test Example 1. In Vitro Evaluation of Intrasynaptic and Extrasynaptic Functional Activities in Cells
Cell: CAMP Hunter™ CHO-K1 TAAR1 Gs Cell Line
Assay Reagent: HitHunter cAMP Assay Detection Kit
Experimental Instrument: PerkinElmer Envision™ Chemiluminescence Signal Detector
Experimental method: cell treatment: The cAMP Hunter cell strain was cultured at 37° C. with 5% CO2 to 70-80% confluence. The cells were harvested, and the cell density was adjusted to 1.5×10^4 cells/mL. The cells were seeded in a white-wall 384-well microwell plate at a volume of 20 μL, and incubated at 37° C. with 5% CO2 overnight. The cell medium was discarded, and 15 μL of 2:1 HBSS/10 mM Hepes:cAMP XS+Ab reagent was added to each well. The mother solution of the sample was diluted with an assay buffer in a concentration gradient to a 4× sample, and 5 μL of the 4× sample was added to each well. The plate was incubated at 37° C. or room temperature for 30 or 60 min. […] 20 μL of cAMP XS+EA reagent was added to each well, and the plate was incubated at room temperature for 3 h. The chemiluminescence signal was read using a PerkinElmer Envision™ detector.
Data analysis: EC50 was calculated using CBIS data analysis software (ChemInnovation, CA). The activity percentage was calculated using the following formula: % activity=100%×(test sample average RLU−solvent control average RLU)/(maximum control average RLU−solvent control average RLU).
Background: Changes in cAMP serve as a functional read-out for many G protein-coupled receptors.

Data set [1] can be described thus: Pharmacokinetic study in rats. In kind it is in vivo, SD rats. Conditions: SD rats; for Cmax: read-out: Cmax or C0. Here is the method: Test Example 2. Pharmacokinetic Study in Rats
Rat: SD Rats Weighing 200-250 g
(§1) Reagent: acetonitrile, MERCK; methanol, MERCK; formic acid, Sigma; tolbutamide, Sigma.
Instrument: water purification equipment, Millipore; electronic balance, METTLER TOLEDO; high-speed benchtop centrifuge, Thermno; water bath thermostatic oscillator, Shanghai Yiheng Technical Co., Ltd.; vortex oscillator, Thermno; liquid chromatography-mass spectrometry, AB SCIEX.
Method: The SD rats were dosed intravenously (IV) and intragastrically (IG), 3 SD rats in each group. Compounds 1-b, 2-a and L27 were separately administered, and the vehicles were DMSO and Tween 80. […] Whole blood samples were separately collected at 0, 5 m (intravenous), 15 m, 30 mi, 1 h, 2 h, 4 h, 6 h, 8 h, 12 h, and 24 h. The whole blood was placed in a heparinized EP tube and centrifuged at 13,500 rpm for 10 min to separate the plasma. After pretreatment, the plasma was analyzed by LC-MS/MS to determine the concentration of the test compound in the plasma.

The nature of data set [2]: Pharmacokinetic study in dogs. Particulars: dog, in vivo, po; Beagle dogs, plasma, after intragastric L15 hydrochloride 2 mg/kg (as free base); label = analyte. How it is done: Test Example 3. Pharmacokinetic Study in Dogs
Dog: Beagle dogs weighing 11-13 kg
as §1
Instrument: water purification equipment, Millipore; electronic balance, METTLER TOLEDO; high-speed benchtop centrifuge, Thermo; water bath thermostatic oscillator, Shanghai Yiheng Technical Co., Ltd.; vortex oscillator, Thermo; liquid chromatography-mass spectrometry, AB SCIEX.
Method: L15 hydrochloride was administered intragastrically at a dose of 2 mg/kg (calculated based on free base), 2 Beagle dogs in each group. The vehicles were DMSO and Tween 80. Whole blood samples were separately collected at 0, 5 min, 15 min, 30 min, 1 h, 2 h, 3 h, 4 h, 6 h, 8 h, 12 h, and 24 h. The whole blood was placed in a heparinized EP tube and centrifuged at 13,500 rpm for 10 min to separate the plasma. After pretreatment, the plasma was analyzed by LC-MS/MS to determine the concentration of the test compound in the plasma.

Data set [3] deals with MK801-induced overactivity. In words: Pharmacodynamic study in mice, MK-801 overactivity model (Test Example 4). Type of data set: in vivo. Particulars: C57 mice. Here is the method:
Test Example 4. Pharmacodynamic Study in Mice
Mouse: C57 mice weighing 20-22 g
Instrument: electronic balance, METTLER TOLEDO; TopScan monitoring system.
(§2) 4.1. model preparation: MK-801 induces overactivity in mice and is commonly used for preclinical evaluation of antipsychotics. The modeling method in this test was: The mice were injected with MK-801 intraperitoneally in at single dose of 0.8 mg/kg.
4.2. Experimental grouping: The mice were randomly divided into model group, 1-b group, and L27 group, 10 animals in each group, as shown in Table 5.
(§3) The mice were randomly divided into groups. At the start of the test, the test samples were administered intragastrically at an single dose according to the doses shown in Table 5, and the mice were placed in an activity chamber. After 30 min, each mouse was injected intraperitoneally with 0.8 mg/kg of MK-801 for modeling, and placed in the activity chamber again. The movement distance (mm) of the mice after modeling (i.e., within 30-60 min after administration) was recorded and analyzed using a TopScan monitoring system.
(§4) […] The total movement distance of the mice after modeling (30-60 min after administration) was recorded.
(§5) Data analysis and processing were carried out using Graphpad 5.0 software. ANOVA test was used to compare the total movement distance between each administration group and model group within 30-60 min.

Data set [4] concerns MK801-induced overactivity. In words: Pharmacodynamic study in mice, MK-801 overactivity model (Test Example 5). Particulars: 3 mg/kg intragastric. In kind it is in vivo, C57 mice. Here is the method: as §2, §3, §4, §5
Test Example 5. Pharmacodynamic Study in Mice
5.1. Experimental grouping: The mice were randomly divided into model group, 1-b group, and 2-a group, 5 animals in each group, as shown in Table 6. The model preparation, test method, observation of indexes and statistical method were the same as those in Test Example 4.

The mark [5] stands for this setting: Sprague-Dawley, rat, in vivo, po, plasma, 1-b IG 5 mg/kg, analyte 1-b.
[6] abbreviates: Sprague-Dawley, rat, in vivo, plasma, 1-b IV 2 mg/kg, analyte 1-b.

The EC50 is the concentration that produces a half-maximal response. The AUC(0-t) is exposure summed from dosing to a finite time, without extrapolation to infinity. A higher AUC(0-t) goes with high exposure. As usually defined, the MRT last is a mean duration of stay, worked out from the concentration-time curve. One may read the Tmax as the time at which the peak concentration occurs. In general, half-life refers to the time in which the quantity being followed falls by half. Read a high half-life as slow loss. For orientation: Cmax means the highest concentration seen after dosing. `c1cc2c(s1)[C@@H]1CNCCN1CC2` [Compound 1-b]: the concentration giving a half-maximal response (EC50) on TAAR1 stood at 62 nM. Further, in data set [1] (1-b IG 5 mg/kg vs IV 2 mg/kg), the F is 66.6 ± 8.12%. In data set [1] (1-b IV 2 mg/kg, analyte 1-b), this molecule returned a Cl_obs of 28.8 ± 3.25 mL/min/kg and a Vss_obs of 2.91 ± 0.68 L/kg. For the same molecule, in data set [1] (setting [5]), the AUC(0-t) amounted to 9.95 ± 1.21 µM·h, the MRT last was determined as 2.33 ± 0.465 h, the Tmax amounted to 0.417 ± 0.144 h and the half-life is 1.85 ± 0.217 h. Besides, the Cmax in data set [1] (setting [5]) is 3.73 ± 0.846 µM. In addition, in data set [1] (setting [6]), the AUC(0-t) was 5.97 ± 0.642 µM·h, the MRT last turned out to be 1.6 ± 0.203 h, the half-life is 1.76 ± 0.344 h and the Cmax is 7.54 ± 2.28 µM. For the same molecule, in data set [2], the AUC(0-t) worked out at 0.0547 µM·h, the concentration peaked (Cmax) at 0.0223 µM, the MRT last stood at 1.68 h and the Tmax was determined as 1.5 h. Besides, in data set [3] (10 mg/kg intragastric), the “effect on MK801-induced overactivity (conclusion)” value is reported as “good inhibition effect”. Also, in data set [3] (1-b 10 mg/kg intragastric, MK-801 0.8 mg/kg i.p., 30-60 min after administration, p<0.05 vs model group 63052.14±21618.80 mm), the “total movement distance after modeling” value is on record as 6493.12±6228.87 mm. Further, the “effect on MK801-induced overactivity (conclusion)” value in data set [4] is reported as “good inhibition effect”. For the same molecule, in data set [4] (MK-801 0.8 mg/kg i.p., 30-60 min after administration, p<0.05 vs model group 101535.71±26076.11 mm), the “total movement distance after modeling” value stood at 13644.54±10814.85 mm.
